{"source": "patent EP0548370A1", "about": "“DRUG FOR PREVENTING AND/OR TREATING ALLERGIC DISEASE” (MOCHIDA PHARMACEUTICAL CO., LTD., priority 1991, dated 1993)", "key": {"[1]": {"test_system": "IgE antibodies", "assay": "Effect on IgE antibody production in ovalbumin-sensitized mice (ELISA)", "format": "in vivo, BALB/c line male mice", "details": "for IgE antibody yield (% control): 7 times, blood 14 days after sensitization", "description": "That is, 4 mg of aluminum hydroxide to which 10 μg of ovalbumin has been adsorbed was intraperitoneally administered to 5 individuals per group of BALB/c line male mice (body weight, 21 - 25 g) to effect sensitization. Immediately after the sensitization, a 5% acacia aqueous solution containing a varied concentration of tofisopam or a 5% acacia aqueous solution containing no tofisopam (control) was administered orally once a day, 7 times in total. After 14 days of the sensitization, blood samples were collected to measure produced amounts of various types of immunoglobulin by means of enzyme-linked immunosorbent assay (ELISA). Production yield of IgE antibodies was measured in the following manner. That is, a blood plasma sample was added to immobilized anti-mouse IgE antibodies to allow IgE to be linked, followed by the reaction with biotin-labeled anti-mouse IgE antibodies and avidin-labeled horseradish peroxidase, and then the amount of produced IgE antibodies was measured based on the horseradish peroxidase activity as a marker (Men'eki-to-[…], vol.15, pp.211 - 216, 1988)."}, "[2]": {"test_system": "IgG₁ antibodies", "assay": "Effect on IgG₁ antibody production in ovalbumin-sensitized mice (ELISA)", "format": "in vivo, BALB/c line male mice", "details": "for IgG₁ antibody yield (% control): 7 times, blood 14 days after sensitization", "description": "(§1) That is, 4 mg of aluminum hydroxide to which 10 µg of ovalbumin has been adsorbed was intraperitoneally administered to 5 individuals per group of BALB/c line male mice (body weight, 21 - 25 g) to effect sensitization. Immediately after the sensitization, a 5% acacia aqueous solution containing a varied concentration of tofisopam or a 5% acacia aqueous solution containing no tofisopam (control) was administered orally once a day, 7 times in total. After 14 days of the sensitization, blood samples were collected to measure produced amounts of various types of immunoglobulin by means of enzyme-linked immunosorbent assay (ELISA). Production yields of IgG₁ and IgM antibodies were measured in the following manner. That is, a blood plasma sample was added to immobilized anti-mouse IgG₁ or IgM antibodies to allow IgG₁ antibodies or IgM antibodies to be linked, followed by the reaction with horseradish peroxidase-labeled anti-mouse IgG₁ antibodies or horseradish peroxidase-labeled anti-mouse IgM antibodies, and then the amount of produced IgG₁ or IgM antibodies was measured based on the horseradish peroxidase activity as a marker."}, "[3]": {"test_system": "IgM antibodies", "assay": "Effect on IgM antibody production in ovalbumin-sensitized mice (ELISA)", "format": "in vivo, BALB/c line male mice", "details": "for IgM antibody yield (% control): 7 times, blood 14 days after sensitization", "description": "as §1"}, "[4]": {"test_system": "rat experimental asthma", "assay": "Rat experimental asthma, airway resistance by over flow technique", "format": "in vivo, Wister line male rats", "description": "That is, 2 x 10¹⁰ cells of inactivated Bordetella pertussis and 1 mg of ovalbumin were respectively administered intraperitoneally and intramuscularly to 5 individuals per group of Wister line male rats (body weight, 194 - 210 g) to effect sensitization. Immediately after the sensitization, a 5% acacia aqueous solution containing a varied concentration of tofisopam or a 5% acacia aqueous solution containing no tofisopam (control) was administered orally once a day, 14 times in total.\nAfter 14 days of the sensitization, ovalbumin was administered to the sensitized rats intravenously at a dose of 0.5 mg/kg, and the increasing degree of airway resistance was measured by means of the over flow technique (Arch. Exp. Pathol. Pharmak., vol.195, pp.71 - 74, 1974). The thus obtained inhibition rate of airway contraction, when the result of the control test is defined as 100, is shown in Table 4."}, "[5]": {"test_system": "psychogenic bronchial asthma", "details": "of 26 cases; with simultaneous β₂ stimulant and theophylline preparation; cited from earlier work"}, "[6]": {"test_system": "bronchial asthma", "details": "16 cases of bronchial asthma patients; cited from earlier work"}, "[7]": {"test_system": "chronic urticaria", "details": "of 14 cases; with antihistaminic drug, Chinese orthodox medicine and the like; cited from earlier work"}, "[8]": {"test_system": "chronic urticaria", "details": "of 2 cases; cited from earlier work"}, "[9]": {"details": "in vivo; cited from earlier work"}, "[10]": {"details": "100 mg/kg/day orally once a day"}, "[11]": {"details": "300 mg/kg/day orally once a day"}, "[12]": {"details": "100 or 300 mg/kg/day orally for 7 days"}}, "data": [{"smiles": "CCC1C(C)=NN=C(c2ccc(OC)c(OC)c2)c2cc(OC)c(OC)cc21", "note": "(stereo not drawn) [Tofisopam, 1-(3,4-dimethoxyphenyl)-5-ethyl-7,8-dimethoxy-4-methyl-5H-2,3-benzodiazepine]", "values": [{"measurement": "IgE antibody yield (% control)", "setting": "[1]; [10]", "result": 66, "unit": "% control"}, {"measurement": "IgE antibody yield (% control)", "setting": "[1]; [11]", "result": 56, "unit": "% control"}, {"measurement": "inhibition at 100 mg/kg", "setting": "[1]; Mus musculus, po, 168 h, 100 mg/kg/day orally for 7 days", "result": "~34", "unit": "%"}, {"measurement": "inhibition at 300 mg/kg", "setting": "[1]; Mus musculus, po, 168 h, 300 mg/kg/day orally for 7 days", "result": "~44", "unit": "%"}, {"measurement": "IgG₁ antibody yield (% control)", "setting": "[2]; [10]", "result": 113, "unit": "% control"}, {"measurement": "IgG₁ antibody yield (% control)", "setting": "[2]; [11]", "result": 111, "unit": "% control"}, {"measurement": "influence upon the production of IgG₁ antibodies", "setting": "[2]; [12]", "result": "hardly exerts influence"}, {"measurement": "IgM antibody yield (% control)", "setting": "[3]; [10]", "result": 97, "unit": "% control"}, {"measurement": "IgM antibody yield (% control)", "setting": "[3]; [11]", "result": 87, "unit": "% control"}, {"measurement": "influence upon the production of IgM antibodies", "setting": "[3]; [12]", "result": "hardly exerts influence"}, {"measurement": "airway reaction", "setting": "[4]; 100 mg/kg/day orally for 14 days", "result": "can inhibit the airway reaction"}, {"measurement": "Inhibition rate (%) of airway contraction", "setting": "[4]; 100 mg/kg/day orally once a day, 14 times, ovalbumin 0.5 mg/kg intravenously 14 days after sensitization", "result": 27, "unit": "%"}, {"measurement": "cases improved", "setting": "[5]", "result": "one"}, {"measurement": "efficacy in objective findings", "setting": "[6]", "result": 25, "unit": "%"}, {"measurement": "efficacy in subjective symptoms", "setting": "[6]", "result": 50, "unit": "%"}, {"measurement": "cases improved", "setting": "[7]", "result": 8}, {"measurement": "cases improved significantly", "setting": "[8]", "result": 1}, {"measurement": "acute, subacute and chronic toxicities", "setting": "[9]", "result": "confirmed safety of the compound"}]}]}
